These results are taken from patent US12161754B2, “Abuse deterrent morphine sulfate dosage forms” (Purdue Pharma L.P., priority 2017, dated 2024).

The data set is described as follows: Simulated smoking tests (Example 14). Particulars: API alkalinized with excess NaOH, heated with a Sterno burner for 15 minutes.

Where a name gives a salt, the structure may show the parent alone.

As for `CN1CC[C@]23c4c5ccc(O)c4O[C@H]2[C@@H](O)C=C[C@H]3[C@H]1C5` [Morphine sulfate pentahydrate, morphine hemi(sulfate pentahydrate)], the API volatilized result was “about 21%”.
